Species on record: Rattus norvegicus
Test: DrugMatrix - Regimen: Daily Repeat
Format: toxicity, organism-based, Sprague-Dawley
Parameters: regimen Daily Repeat, gender Male, age 6-8 weeks
Settings: in vivo, po, route oral GAVAGE, vehicle .5 % CMC; for ABSOLUTE BASOPHIL / ABSOLUTE EOSINOPHIL / ABSOLUTE LYMPHOCYTE / ABSOLUTE MONOCYTE / ABSOLUTE SEGMENTED NEUTROPHIL / BASOPHIL / EOSINOPHIL / ERYTHROCYTE COUNT / HEMATOCRIT / HEMOGLOBIN / LEUKOCYTE COUNT / LYMPHOCYTE / MEAN CORPUSCULAR HEMOGLOBIN / MEAN CORPUSCULAR HEMOGLOBIN CONCENTRATION / MEAN CORPUSCULAR VOLUME / MONOCYTE / NEUTROPHIL / NUCLEATED RED BLOOD CELLS / PLATELET COUNT: tissue Blood; for ALANINE AMINOTRANSFERASE / ALBUMIN / ALKALINE PHOSPHATASE / ASPARTATE AMINOTRANSFERASE / BLOOD UREA NITROGEN / CARBON DIOXIDE / CHLORIDE / CHOLESTEROL / CREATINE PHOSPHOKINASE / CREATININE / GLUCOSE / LACTATE DEHYDROGENASE / LIPASE / PHOSPHORUS / POTASSIUM / SODIUM / TOTAL BILIRUBIN / TOTAL PROTEIN / URIC ACID: tissue Plasma
[1] = 0 mg/kg, 72 h, dose level Control, time 3 day
[2] = 0 mg/kg, 120 h, dose level Control, time 5 day
[3] = 4.5 mg/kg, 72 h, dose level Low, time 3 day

CC(C(=O)O)c1ccc(-c2ccccc2)c(F)c1 (centres undefined) [FLURBIPROFEN]
ABSOLUTE BASOPHIL [1]: 0 CELLS/uL | ABSOLUTE EOSINOPHIL [1]: 222.83 CELLS/uL | ABSOLUTE LYMPHOCYTE [1]: 14453 CELLS/uL | ABSOLUTE MONOCYTE [1]: 0 CELLS/uL | ABSOLUTE SEGMENTED NEUTROPHIL [1]: 1490.83 CELLS/uL | BASOPHIL [1]: 0% | EOSINOPHIL [1]: 1.33% | ERYTHROCYTE COUNT [1]: 5.76 x10E6/uL | HEMATOCRIT [1]: 36.52% | HEMOGLOBIN [1]: 13.45 G/DL | LEUKOCYTE COUNT [1]: 16.17 x10E3/uL | LYMPHOCYTE [1]: 89.33% | MEAN CORPUSCULAR HEMOGLOBIN [1]: 23.37 pg | MEAN CORPUSCULAR HEMOGLOBIN CONCENTRATION [1]: 36.85 G/DL | MEAN CORPUSCULAR VOLUME [1]: 63.47 fL | MONOCYTE [1]: 0% | NEUTROPHIL [1]: 9.33% | NUCLEATED RED BLOOD CELLS [1]: 0 /100WBC | PLATELET COUNT [1]: 1239.5 x10E3/uL | ALANINE AMINOTRANSFERASE [1]: 43.83 u/L | ALBUMIN [1]: 4.27 G/DL | ALKALINE PHOSPHATASE [1]: 398.83 u/L | ASPARTATE AMINOTRANSFERASE [1]: 81.17 u/L | BLOOD UREA NITROGEN [1]: 17.67 mg/dL | CARBON DIOXIDE [1]: 27.5 mmol/L | CHLORIDE [1]: 99.17 MEQ/L | CHOLESTEROL [1]: 74 mg/dL | CREATINE PHOSPHOKINASE [1]: 331.5 u/L | CREATININE [1]: 0.2 mg/dL | GLUCOSE [1]: 171.33 mg/dL | LACTATE DEHYDROGENASE [1]: 241.67 u/L | LIPASE [1]: 9.5 u/L | PHOSPHORUS [1]: 12.25 mg/dL | POTASSIUM [1]: 6.33 MEQ/L | SODIUM [1]: 141.28 MEQ/L | TOTAL BILIRUBIN [1]: 0.15 mg/dL | TOTAL PROTEIN [1]: 5.98 G/DL | URIC ACID [1]: 1.63 mg/dL | ABSOLUTE BASOPHIL [2]: 0 CELLS/uL | ABSOLUTE EOSINOPHIL [2]: 148.67 CELLS/uL | ABSOLUTE LYMPHOCYTE [2]: 16020.5 CELLS/uL | ABSOLUTE MONOCYTE [2]: 29.17 CELLS/uL | ABSOLUTE SEGMENTED NEUTROPHIL [2]: 1468.33 CELLS/uL | BASOPHIL [2]: 0% | EOSINOPHIL [2]: 1% | ERYTHROCYTE COUNT [2]: 5.78 x10E6/uL | HEMATOCRIT [2]: 35.77% | HEMOGLOBIN [2]: 13.4 G/DL | LEUKOCYTE COUNT [2]: 17.67 x10E3/uL | LYMPHOCYTE [2]: 90.5% | MEAN CORPUSCULAR HEMOGLOBIN [2]: 23.22 pg | MEAN CORPUSCULAR HEMOGLOBIN CONCENTRATION [2]: 37.47 G/DL | MEAN CORPUSCULAR VOLUME [2]: 61.92 fL | MONOCYTE [2]: 0.17% | NEUTROPHIL [2]: 8.33% | NUCLEATED RED BLOOD CELLS [2]: 0.17 /100WBC | PLATELET COUNT [2]: 1255.5 x10E3/uL | ALANINE AMINOTRANSFERASE [2]: 46.5 u/L | ALBUMIN [2]: 4.38 G/DL | ALKALINE PHOSPHATASE [2]: 336 u/L | ASPARTATE AMINOTRANSFERASE [2]: 76.5 u/L | BLOOD UREA NITROGEN [2]: 20 mg/dL | CARBON DIOXIDE [2]: 27.5 mmol/L | CHLORIDE [2]: 101 MEQ/L | CHOLESTEROL [2]: 71.33 mg/dL | CREATINE PHOSPHOKINASE [2]: 231.83 u/L | CREATININE [2]: 0.37 mg/dL | GLUCOSE [2]: 168.83 mg/dL | LACTATE DEHYDROGENASE [2]: 174 u/L | LIPASE [2]: 8.67 u/L | PHOSPHORUS [2]: 11.48 mg/dL | POTASSIUM [2]: 6.82 MEQ/L | SODIUM [2]: 143.8 MEQ/L | TOTAL BILIRUBIN [2]: 0.2 mg/dL | TOTAL PROTEIN [2]: 5.98 G/DL | URIC ACID [2]: 1.83 mg/dL | ABSOLUTE BASOPHIL [3]: 0 CELLS/uL | ABSOLUTE EOSINOPHIL [3]: 292.33 CELLS/uL | ABSOLUTE LYMPHOCYTE [3]: 14732.33 CELLS/uL | ABSOLUTE MONOCYTE [3]: 0 CELLS/uL | ABSOLUTE SEGMENTED NEUTROPHIL [3]: 2542 CELLS/uL | BASOPHIL [3]: 0% | EOSINOPHIL [3]: 1.67% | ERYTHROCYTE COUNT [3]: 5.5 x10E6/uL | HEMATOCRIT [3]: 34.7% | HEMOGLOBIN [3]: 12.83 G/DL | LEUKOCYTE COUNT [3]: 17.57 x10E3/uL | LYMPHOCYTE [3]: 83.67% | MEAN CORPUSCULAR HEMOGLOBIN [3]: 23.33 pg | MEAN CORPUSCULAR HEMOGLOBIN CONCENTRATION [3]: 36.97 G/DL | MEAN CORPUSCULAR VOLUME [3]: 63.03 fL | MONOCYTE [3]: 0% | NEUTROPHIL [3]: 14.67% | NUCLEATED RED BLOOD CELLS [3]: 0 /100WBC | PLATELET COUNT [3]: 1184.67 x10E3/uL | ALANINE AMINOTRANSFERASE [3]: 49.67 u/L | ALBUMIN [3]: 3.57 G/DL | ALKALINE PHOSPHATASE [3]: 319 u/L | ASPARTATE AMINOTRANSFERASE [3]: 69.33 u/L | BLOOD UREA NITROGEN [3]: 13.33 mg/dL | CARBON DIOXIDE [3]: 30 mmol/L | CHLORIDE [3]: 99.67 MEQ/L | CHOLESTEROL [3]: 69 mg/dL | CREATINE PHOSPHOKINASE [3]: 219.67 u/L | CREATININE [3]: 0.25 mg/dL | GLUCOSE [3]: 168.33 mg/dL | LACTATE DEHYDROGENASE [3]: 123.67 u/L | LIPASE [3]: 8.33 u/L | PHOSPHORUS [3]: 12.13 mg/dL | POTASSIUM [3]: 6.57 MEQ/L | SODIUM [3]: 143.2 MEQ/L | TOTAL BILIRUBIN [3]: 0.23 mg/dL | TOTAL PROTEIN [3]: 5.37 G/DL | URIC ACID [3]: 1.77 mg/dL

Reference: ChEMBL document CHEMBL3885881, “DrugMatrix”
